# Measured values taken from US8759013B2, “Dual-target biosensor cell assays” (Corning Incorporated, priority 2008, dated 2014).
# “Also recorded” adds a separate entry of the source. Like-named read-outs stand apart in the source and are kept apart here.
# Tests used:
# [1] = test system: endogenous receptors in A431 cells; experiment: LOPAC library agonist screening with biosensor cellular assay (DMR); format: cell-based, human; details: for identification of beta-adrenoceptor agonists as hits in the agonist screen: 1 microM
# Description: (§1) Corning® Epic® wavelength interrogation system was used.
# Furthermore, a ligand-induced DMR is a real time kinetic response containing many useful parameters (e.g., phases, amplitudes and kinetics) for analyzing ligand pharmacology. The LOPAC library was used to screen agonists for endogenous receptors in A431 cells using real time kinetic measurements.
# First, the response in terms of wavelength shift between before and 2 min after stimulation was calculated.
# Second, the responses in terms of wavelength shift between before and 50 min after stimulation were calculated.
# Third, the responses in terms of wavelength shift between 2 min and 50 min after stimulation were calculated. The difference in resonant wavelength between the two time points was plotted as a function of compounds (FIG. 8).
# [2] = molecular target: T1, histamine receptor subtype 1 (H1R) (Homo sapiens, UniProt P35367); experiment: Antagonist pretreatment against the histamine-induced DMR signal in A431 cells; format: cell-based; parameters: endogenous in cells; host or cells: A431 (human epidermoid carcinoma), quiescent after serum starvation; details: pretreatment of A431 with compound at 1 μM
# T1 sequence (P35367 whole entry): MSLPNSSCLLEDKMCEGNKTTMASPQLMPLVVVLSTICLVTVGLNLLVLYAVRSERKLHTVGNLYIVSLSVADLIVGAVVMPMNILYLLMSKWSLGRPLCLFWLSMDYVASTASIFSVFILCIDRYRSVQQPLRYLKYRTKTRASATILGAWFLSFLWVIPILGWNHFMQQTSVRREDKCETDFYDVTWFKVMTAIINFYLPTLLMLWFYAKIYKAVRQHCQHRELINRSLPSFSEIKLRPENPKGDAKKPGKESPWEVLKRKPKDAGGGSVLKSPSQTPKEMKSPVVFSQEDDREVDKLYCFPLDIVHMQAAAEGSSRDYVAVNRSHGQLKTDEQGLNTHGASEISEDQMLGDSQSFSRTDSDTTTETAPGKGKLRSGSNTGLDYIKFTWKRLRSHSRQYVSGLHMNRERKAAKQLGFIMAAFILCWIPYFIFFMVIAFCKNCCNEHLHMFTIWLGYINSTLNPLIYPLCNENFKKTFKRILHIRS
# [3] = molecular target: T1, histamine receptor subtype 1 (H1R); experiment: Dual receptor-specific antagonist screening (LOPAC), histamine response; format: cell-based; parameters: endogenous in cells; host or cells: A431 (human epidermoid carcinoma), quiescent after serum starvation
# [4] = molecular target: T2, β2-adrenergic receptor (β2AR) (Homo sapiens, UniProt P07550); experiment: Dual receptor-specific antagonist screening (LOPAC), epinephrine response; format: cell-based; parameters: A431 cells endogenously express both PAR1 and β2AR; endogenous in cells; host or cells: A431 (human epidermoid carcinoma), quiescent after serum starvation
# [5] = molecular target: T1, histamine receptor subtype 1 (H1R); details: quiescent A431 cells
# [6] = molecular target: T2, β2-adrenergic receptor (β2AR); details: co-stimulation with 2 nM epinephrine and 1 μM histamine; high doses
# [7] = molecular target: T1, histamine receptor subtype 1 (H1R)
# Excerpt: as §1
# To test this possibility, a desensitization assay was used.
# [8] = molecular target: T2, β2-adrenergic receptor (β2AR); details: for type of DMR signal induced: A431 cells, 2 nanomolar in b161/b162
# Excerpt: as §1
# A431 endogenously expresses large numbers of the β2AR, but neither β1 nor β3-ARs. […] The DMR signal consists of a small decreased signal (i.e., N-DMR) with a short duration, followed by an increased signal (i.e., P-DMR) to an elevated level.
# [9] = A431 cells, compound at 1 microM, real time kinetic
# [10] = compound 1 microM for one hour, then cocktail of epinephrine and histamine
compound,measurement,setting,value
COc1ccc(CN(CCN(C)C)c2ccccn2)cc1 [pyrilamine],ligand-induced DMR signal in agonist screening,[1]; [9],did not lead to any DMR signal
Clc1ccc(Cn2c(CN3CCCC3)nc3ccccc32)cc1 [clemizole],effect on the DMR signal induced by 1 μM histamine,[2],completely inhibited
same,effect on the histamine response in the co-stimulation,[3]; [10],completely or almost completely attenuated
same,ligand-induced DMR signal in agonist screening,[1]; [9],did not lead to any DMR signal
CC(C)(C)c1ccc(C(O)CCCN2CCC(C(O)(c3ccccc3)c3ccccc3)CC2)cc1 (stereo not shown) [terfenadine],ligand-induced DMR signal in agonist screening,[1]; [9],did not lead to any DMR signal
c1cc(CN2CCCCC2)cc(OCCCNc2nc3ccccc3s2)c1 [SKF95282],effect on the epinephrine response in the co-stimulation,[4]; [10],partial desensitization
same,ligand-induced DMR signal in agonist screening,[1]; [9],DMR that was similar to pindolol
Clc1ccc2c(c1)C(N1CCNCC1)=Nc1ccccc1O2 [amoxapine],effect on the epinephrine response in the co-stimulation,[4]; [10],little effect
R(−)-α-methyl-histamine,ligand-induced DMR signal in agonist screening,[1],did not lead to any obvious DMR signal
(±)isoproterenol,ligand-induced DMR signal in agonist screening,[1]; [9],typical Gs-type DMR signal
CC(C)NCC(O)COc1ccc(CCOCC2CC2)cc1 (stereo not shown) [betaxolol],effect on the histamine response in the co-stimulation,[3]; [10],little impact
same,ligand-induced DMR signal in agonist screening,[1]; [9],did not result in any apparent DMR signals
COCCc1ccc(OCC(O)CNC(C)C)cc1 (racemic) [(±)-metoprolol],ligand-induced DMR signal in agonist screening,[1]; [9],did not result in any apparent DMR signals
Cc1ccc(/C(=C\CN2CCCC2)c2ccccn2)cc1 [triprolidine],effect on the DMR signal induced by 1 μM histamine,[2],completely inhibited
same,effect on the histamine response in the co-stimulation,[3]; [10],completely or almost completely attenuated
same,ligand-induced DMR signal in agonist screening,[1]; [9],did not lead to any significant DMR signal
S(−)pindolol,ligand-induced DMR signal in agonist screening,[1]; [9],Gs-like DMR which only consists of the prolonged P-DMR event without the initial N-DMR event
CC(C)NCC(O)c1ccc(NS(C)(=O)=O)cc1 (racemic) [(±)-Sotalol],ligand-induced DMR signal in agonist screening,[1]; [9],did not result in any apparent DMR signals
CN(C)CCC(c1ccccc1)c1ccccn1 (stereo not shown) [pheniramine],effect on the histamine response in the co-stimulation,[3]; [10],partial inhibition
same,ligand-induced DMR signal in agonist screening,[1]; [9],did not lead to any DMR signal
CN(C)CC[C@@H](c1ccc(Br)cc1)c1ccccn1 [(+)-brompheniramine],effect on the histamine response in the co-stimulation,[3],completely or almost completely attenuated
same,ligand-induced DMR signal in agonist screening,[1]; [9],did not lead to any DMR signal
NC(N)=Nc1nc(CSCCC(N)=NS(N)(=O)=O)cs1 [famotidine],effect on the epinephrine response in the co-stimulation,[4]; [10],partial desensitization
same,ligand-induced DMR signal in agonist screening,[1]; [9],DMR that was similar to pindolol
N=C(N)SCCc1cnc[nH]1 [imetit],ligand-induced DMR signal in agonist screening,[1]; [9],did not lead to any obvious DMR signal
CC(C)NCC(O)COc1cccc2ccccc12 (racemic) [(±)-propranolol],ligand-induced DMR signal in agonist screening,[1]; [9],did not result in any apparent DMR signals
CN(C)CCN(Cc1cccs1)c1ccccn1 [methapyrilene],ligand-induced DMR signal in agonist screening,[1]; [9],did not lead to any DMR signal
S=C(NC1CCCCC1)N1CCC(c2cnc[nH]2)CC1 [thioperamide],effect on the DMR signal induced by 1 μM histamine,[2],did not have obvious impact
CNCCC=C1c2ccccc2CCc2ccccc21 [nortriptyline],effect on the epinephrine response in the co-stimulation,[4],little effect
C=CCc1ccccc1OCC(O)CNC(C)C (stereo not shown) [alprenolol],effect on the histamine response in the co-stimulation,[3]; [10],little impact
same,ligand-induced DMR signal in agonist screening,[1]; [9],did not result in any apparent DMR signals
CN(C)CCC=C1c2ccccc2CCc2ccccc21 [amitriptyline],effect on the epinephrine response in the co-stimulation,[4]; [10],little effect
NCCc1c[nH]cn1 [histamine],effect on the epinephrine response in the co-stimulation,[4]; [10],but not to epinephrine
same,type of DMR (optical) signal induced,[5],dose-dependent and saturable Gq-type optical signal
same,Hill coefficient of the histamine saturation curve,[5]; n=6,1.87
same,effect of pretreatment on the epinephrine response,[6],slightly attenuated
same,effect on the histamine response in the co-stimulation,[3],complete desensitization
same,Hill slope for inhibition of the histamine response,[7],1.4
same,effect of pretreatment on the histamine response,[7],completely inhibited
same,ligand-induced DMR signal in agonist screening,[1]; [9],biphasic Gq-type DMR signal; also recorded: Gq-like DMR signal
CN(C)CCOC(C)(c1ccccc1)c1ccccn1 (stereo not shown) [doxylamine],effect on the histamine response in the co-stimulation,[3]; [10],completely or almost completely attenuated
same,ligand-induced DMR signal in agonist screening,[1]; [9],did not lead to any DMR signal
CCc1ccccc1OC[C@@H](O)CN[C@H]1CCCc2ccccc21 [SR 59230A],effect on the epinephrine response in the co-stimulation,[4]; [10],inhibited or partially attenuated
same,effect on the histamine response in the co-stimulation,[3]; [10],little impact
same,ligand-induced DMR signal in agonist screening,[1]; [9],did not result in any apparent DMR signals
CC(COc1ccccc1)N(CCCl)Cc1ccccc1 (stereo not shown) [phenoxybenzamine],effect on the epinephrine response in the co-stimulation,[4]; [10],little effect
same,effect on the histamine response in the co-stimulation,[3],almost completely inhibited
CNCCCC12CCC(c3ccccc31)c1ccccc12 [maprotiline],effect on the epinephrine response in the co-stimulation,[4]; [10],little effect
CC(C)(C)NC[C@H](O)COc1nsnc1N1CCOCC1 [S(−)-timolol],ligand-induced DMR signal in agonist screening,[1]; [9],did not result in any apparent DMR signals
CC(CN1c2ccccc2Sc2ccccc21)N(C)C (stereo not shown) [promethazine],ligand-induced DMR signal in agonist screening,[1]; [9],did not lead to any DMR signal
(S)-(−)-propafenone,effect on the epinephrine response in the co-stimulation,[4]; [10],inhibited or partially attenuated
same,ligand-induced DMR signal in agonist screening,[1]; [9],did not result in any apparent DMR signals
CC(C)(C(=O)O)c1ccc(C(O)CCCN2CCC(C(O)(c3ccccc3)c3ccccc3)CC2)cc1 (stereo not shown) [fexofenadine],ligand-induced DMR signal in agonist screening,[1]; [9],did not lead to any DMR signal
Ruthernium red,ligand-induced DMR signal in agonist screening,[1]; [9],Gs-like DMR signal but with much larger amplitude
CN(C)CCC(c1ccc(Cl)cc1)c1ccccn1 (racemic) [(±)chlorpheniramine],ligand-induced DMR signal in agonist screening,[1]; [9],did not lead to any DMR signal
CC(C)NC[C@H](O)COc1cccc2ccccc12 [(S)-propranolol],ligand-induced DMR signal in agonist screening,[1]; [9],did not result in any apparent DMR signals
CN1CCC(=C2c3ccccc3CC(=O)c3sccc32)CC1 [ketotifen],ligand-induced DMR signal in agonist screening,[1]; [9],did not lead to any DMR signal
CCCCc1oc2ccccc2c1C(=O)c1cc(I)c(OCCN(CC)CC)c(I)c1 [amiodarone],identification of beta-adrenoceptor agonists as hits in the agonist screen,[1]; A431 cells,false negative
CN(C)CCC(c1ccc(Br)cc1)c1ccccn1 (racemic) [(±)-brompheniramine],effect on the DMR signal induced by 1 μM histamine,[2],completely inhibited
same,effect on the histamine response in the co-stimulation,[3],completely or almost completely attenuated
same,ligand-induced DMR signal in agonist screening,[1]; [9],did not lead to any DMR signal
(±)-ephedrine,identification of beta-adrenoceptor agonists as hits in the agonist screen,[1]; A431 cells,false negative
CNC[C@H](O)c1ccc(O)c(O)c1 [epinephrine],type of DMR signal induced,[8],Gs-type DMR signal
same,type of DMR signal induced,[8]; listed as Epinephrine,biphasic Gs-type DMR response
same,Hill slope of the epinephrine DMR response,"[8]; quiescent A431 cells, n=10",0.95
same,effect of pretreatment on the epinephrine response,[6],completely inhibited
CN(C)CCCCSC(=N)N [SKF91488],effect on the DMR signal induced by 1 μM histamine,[2],did not have obvious impact
"Cc1ccc(OCC(O)C(C)NC(C)C)c2c1CCC2 (stereo not shown) [ICI 118,551]",effect on the histamine response in the co-stimulation,[3]; [10],little impact
same,ligand-induced DMR signal in agonist screening,[1]; [9],did not result in any apparent DMR signals
CN(C)CC[C@@H](c1ccc(Cl)cc1)c1ccccn1 [(+)-chlorpheniramine],ligand-induced DMR signal in agonist screening,[1]; [9],did not lead to any DMR signal
CN1CCC[C@@H]1CCO[C@](C)(c1ccccc1)c1ccc(Cl)cc1 [clemastine],ligand-induced DMR signal in agonist screening,[1]; [9],did not lead to any DMR signal
CC(C)(C)NCC(O)COc1cccc2[nH]c(=O)[nH]c12 (racemic) [(±)CGP12177],ligand-induced DMR signal in agonist screening,[1]; [9],Gs-like DMR which only consists of the prolonged P-DMR event without the initial N-DMR event
CC(C)NCC(O)c1ccc(O)c(O)c1 (stereo not drawn) [R(−)isoproterenol],ligand-induced DMR signal in agonist screening,[1]; [9],typical Gs-type DMR signal
